The values that follow come from US11549115B2, “Compositions and methods for regulated gene expression” (YALE UNIVERSITY, priority 2017, dated 2023).

Series [1] can be described thus: LC-MS quantification of aTC in fecal pellets. In kind it is in vivo, mice. On the procedure:
Germ-free Swiss Webster mice were maintained in flexible plastic gnotobiotic isolators with a 12-hour light/dark cycle and provided a standard, autoclaved mouse chow (5K67 LabDiet, Purina) ad libitum and autoclaved water for the duration of the experiment. Filter-sterilized aTC was added to drinking water stored in red-tinted bottles (Ancare, #PC9RH8.5RD) to inhibit degradation by light. Mice were co-housed for the duration of the experiments. Cage changes were always carried out when aTC was withdrawn from drinking water. Fecal and luminal samples were collected and processed in 2.0 mL screw cap tubes (Axygen Scientific; #SCT-200-C). Germ free status was monitored by 16S rDNA-targeted PCR of fecal DNA and anaerobic and aerobic culture of fecal samples.
Groups of 6 germ-free Swiss Webster mice were orally gavaged with 1×10^9 CFU of the desired B. thetaiotaomicron strain. Fecal samples (˜100-200 mg) were collected daily for 12 days. aTC (100 μg/mL) was administered in drinking water for 12 hours after fecal collection on day 1. Fecal samples were homogenized in 1 mL of 1× tris-buffered saline (TBS) with a single 5 mm stainless steel bead using a bead beater (BioSpec Products) at 26° C. for 1 minute on the high setting, followed by vortexing at top speed for 8 minutes. Samples were then centrifuged at 500×g for 1 minute to pellet fibrous and insoluble matter. Bacterial cells from 600 μL of the supernatant was isolated through centrifugation at 21,130×g for 3 minutes, resuspended in 50 μL of Sialidase Reaction buffer (50 mM Tris-HCl pH 7.0, 5 mM EDTA) containing 1× BugBuster, and stored at −80° C. for ex vivo sialidase measurements (described below).
To the remaining material, 400 mg of 0.1 mm glass beads was added and further homogenized by bead beating for 2 minutes. Insoluble material was pelleted by centrifuging the sample for 3 minutes at 21,130×g, and 20 μL of the supernatant was used for mass spectrometry measurements of sialic acid and aTC by liquid chromatography coupled tandem mass spectrometry (QqQ) and mass spectrometry (qTOF), respectively.
For aTC measurements, 5 μL of internal standard solution (0.25 μM sulfamethoxazole and caffeine in H2O) were added to each sample (20 μL) and further processed as described above. Dried samples were re-suspended in 4 μL methanol and diluted in 12 μL H2O. Chromatographic separation was performed on a C18 Kinetex Evo column (Phenomenex, 100 mm×2.1 mm, 1.7 μm particle size) using mobile phase A: H2O, 0.1% formic acid and B: methanol, 0.1% formic acid at 45° C. 10 μL of sample were injected at 100% A and 0.4 mL/min flow followed by a linear gradient to 95% B over 5.5 min and 0.4 mL/min flow leading to aTC, caffeine and sulfamethoxazole elution at 3.0, 1.9, 2.1 min, respectively. The qTOF was operated in positive scanning mode (50-1000 m/z) and the following source parameters: VCap: 3500 V, nozzle voltage: 2000 V, gas temp: 225° C.; drying gas 13 L/min; nebulizer: 20 psig; sheath gas temp 225° C.; sheath gas flow 12 L/min. Online mass calibration was performed using a second ionization source and a constant flow (5 μL/min) of reference solution (121.0509 and 922.0098 m/z). Compounds were identified based on the retention time of chemical standards and their accurate mass (tolerance 20 ppm). The MassHunter Quantitative Analysis Software (Agilent, version 7.0) was used for peak integration and quantification was based on calibration curves using chemical standards and the signal intensity of the internal standard spiked into each sample.

Series [2] has as its system Bt::tetR P1TDP^GH023-NanoLuc. The format is in vivo, mice. On the procedure: 8-10 week old SPF Rag^−/− mice (Jackson Laboratories) (n=7) were colonized by oral gavage with 1×10^9 CFU of B. thetaiotaomicron TetR-P1TDP^GH023-NanoLuc. Fecal pellets were collected daily after gavage and processed as described above. The supernatant was used for CFU determination by plating dilutions on BHI-blood agar plates containing gentamicin and erythromycin, and 500 μL was used for luminescence measurements (described below).
(§1) The 500 μL collected from the resuspended fecal supernatant was centrifuged at 21,130×g for 3 minutes to pellet bacterial cells, which were then resuspended in 50 μL 1× BugBuster (Novagen) in 1×PBS and lysed by one round of freeze-thaw and 10 minutes of nutation at 26° C. Samples were centrifuged at 21,130×g for 10 minutes at 4° C., and 10 μL of the supernatant was mixed with an equal volume of NanoLuc Reaction Buffer to induce luminescence production. Luminescence was measured after a 5 minute incubation at 26° C. on a plate reader (BioTek Synergy H1) with an integration time of 1 second at a gain setting of 100. Luminescence values were normalized to colony forming units (CFUs) determined by dilution plating of the resuspended fecal supernatant on BHI-blood agar plates containing gentamicin and erythromycin.

The subject of series [3] is Bt::tetR P1TDP^GH023-NanoLuc. Kind of series: Fecal luminescence in monocolonized gnotobiotic mice. In kind it is in vivo. On the procedure: Germ-free Swiss Webster mice were orally gavaged with 1×10^9 CFU of Bt::tetR P1TDP^GH023-NanoLuc and colonization was allowed to stabilize for at least 7 days prior to the start of the experiment. Fecal pellets were collected every day, and groups of mice were given aTC in the drinking water at various concentrations for 48 hours after stool collection on Day 3 and Day 17. Mice belonging to the same treatment group were co-housed for the duration of the experiment. To obtain samples for luminescence production, fecal pellets and intestinal lumen (˜100-200 mg) were homogenized in 1 mL of 1×PBS with a single 5 mm stainless steel bead using a bead beater (BioSpec Products) at 26° C. for 1 minute on the high setting, followed by vortexing at top speed for 8 minutes. Samples were centrifuged at 500×g for 1 minute to pellet fibrous and insoluble matter. The supernatant was used for CFU determination by plating dilutions on BHI-blood agar plates containing gentamicin and erythromycin, and 500 μL was used for luminescence measurements (described below).
as §1

[4] abbreviates: 12 hours of aTC (100 μg/mL) via drinking water.

By half-life is commonly meant the time in which the quantity being followed falls by half. For `Cc1c2c(c(O)c3c(O)cccc13)C(=O)[C@]1(O)C(=O)C(C(N)=O)=C(O)[C@@H](N(C)C)[C@@H]1C2` [aTC, Anhydrotetracycline], in series [1] (setting [4]), the “time to spike of inducer levels in fecal pellets” value was no more than 12 h and the “time to undetectable after the spike” value was 24 h. In series [1] (Swiss Webster, mouse, faeces, oral, fecal pellets, gnotobiotic mice with wildtype B. thetaiotaomicron, 100 μg/mL in drinking water for 4 days, read-out: half-life in vivo (converted)), the half-life was 19 h. For the same molecule, the “degradation by B. thetaiotaomicron in vivo” value in series [1] (comparison with germfree mice) is on record as “does not degrade aTC in vivo”. Besides, the “time to detection after addition to drinking water” value in series [1] (fecal pellets, 100 μg/mL) was no more than 24 h. The “time to undetectable after removal from the water” value in series [1] (fecal pellets, 100 μg/mL for 4 days) turned out to be 6 days. Moreover, the “return of fecal luminescence to baseline after aTC removal” value in series [2] (SPF Rag-/- mice) turned out to be 3 days. In addition, in series [2] (SPF Rag-/- mice, aTC in drinking water for 48 hours), the “increase in fecal luminescence” value is reported as 4,800 fold. Moreover, in series [2] (mouse, in vivo), the “effect on stability of B. thetaiotaomicron in a complete murine microbiota” value was “does not affect the stability of B. thetaiotaomicron”. Also, the “impact on B. thetaiotaomicron stability in the gut” value in series [3] (CFU) is “do not impact B. thetaiotaomicron stability in the gut”. Further, the “aTC concentration at which detectable responses start” value in series [3] (drinking water, within 24 hours) is 0.2 to 0.5 µg/mL. Moreover, in series [3] (monocolonized mice), the “complete repression after aTC removal” value was 9 days. For the same molecule, the “increase of luminescence in fecal pellets” value in series [3] (monocolonized mice, within 24 hours of aTC addition) is ~1,000 fold. In addition, the “range of commensal gene expression modulated inside the gut by varying aTC concentrations” value in series [3] (mouse, in vivo) was 3 orders of magnitude. For the same molecule, the “aTC concentration providing maximal gene induction in vivo” value in series [3] (sigmoidal fit) worked out at 100 µg/mL.
